In patent US11731977B2, “SGC stimulators” (Cyclerion Therapeutics, Inc., priority 2016, dated 2023):
Where two headings read alike, the source gives them in different places.

Assays:
[1] = Rat cerebrospinal fluid (CSF) pharmacokinetic properties (Example 4); format: in vivo; conditions: male, Sprague-Dawley
Method: Protocol PK in rats was determined following oral dosing. For the oral (PO) experiments, a group of 6 male Sprague-Dawley rats with an indwelling catheter placed in the cistema magna were used. The PO group was dosed with 10 mg/kg or 1 mg/kg of a compound formulated as a solution in PEG400. PO doses were administered by oral gavage and delivered to the stomach using a syringe and gavage tube. Following oral dosage administration, the gavage tube was flushed with approximately 0.5 mL of water to ensure complete delivery of the full dose.
Plasma samples were collected as follows: samples of CSF and blood were collected at 1 hour, 2, and optionally at 4 hours post-dosing. CSF samples (0.05 mL) were collected through the intracisternal catheter. Blood samples (0.25 mL) were collected through retro-orbital sampling. These samples were kept on ice until processed for plasma. Blood samples were centrifuged at 3200 rpm for 5 minutes at approximately 5° C. within 1 hour of collection. Plasma was directly transferred to a 96-well plate tube (0.125 mL). Plug caps were placed on the tubes and the tubes frozen at approximately −70° C. and stored until analysis. Plasma was collected and analyzed for the presence of a compound.
Quantitation of Compounds. The compound in question and the internal standard were extracted from plasma and CSF by precipitation. Samples were analyzed using liquid chromatography (LC) with tandem mass spectrometric detection (MS/MS) using electrospray ionization. The standard curve range was from 1 to 1000 ng/mL. Results of the compounds described herein in this assay are illustrated in Table 4a below (10 mg/kg dose) and Tables 4b and 4c below (1 mg/kg).
Kp,uu is defined as the concentration ratio of unbound drug in CSF to unbound drug in plasma. Unbound drug in plasma (or free plasma concentration) is calculated by multiplying the total plasma concentration by the unbound fraction as determined by plasma protein binding. The CSF concentration is then divided by the free plasma concentration to determine the Kp,uu. (See e.g., Di et al., J. Med. Chem., 56, 2-12 (2013))

[2] = system: rats; experiment: Acute and tonic pain: acetic acid test, abdominal cramps (Example 13); conditions: Compound I-1 p.o. 10 mg/kg, 120 minutes after treatment
[3] = system: brain activity in awake rats; experiment: Brain activation in rats measured by fMRI-BOLD (Example 11); format: in vivo, rat; conditions: single IV administration, vs peripherally restricted sGC stimulator
Excerpt: Objective. Functional magnetic resonance imaging or functional MRI (fMRI) is a functional neuroimaging procedure using MRI technology that measures brain activity by detecting changes associated with blood flow. This technique relies on the fact that cerebral blood flow and neuronal activation are coupled. When an area of the brain is in use, blood flow to that region also increases. Awake rats were studied by fMRI to assess changes (“fingerprint”) in brain activity following a single intravenous administration of a compound of the invention
Experimental Design. 24 male Sprague-Dawley rats weighing from 275-350 g were used. Following acclimation, the animals were placed in the restrainer and positioned in the magnet. Catheters were placed in each animal to allow for remote dosing when the animals were in the magnet. Scans were acquired continuously for 5 minutes prior to administration of either a vehicle or a compound of the invention to establish a baseline for the brain activity. Following the 5-minute baseline period, either the vehicle or the compound of the invention was administered to the rat and scans were acquired continuously for 30-45 minutes.

[4] = 10 mg/kg PO, 1 h, unbound CSF/unbound plasma, read-out: Kp,uu (@ 1 h)
[5] = CSF, 10 mg/kg PO, 1 h, read-out: CSF Conc. (nM @ 1 h)

SMILES | Kp uu at 1 h [1, 4] | concentration at 1 h [1, 5] [nM] | further results
Fc1cccc(Cc2nc(-c3nc(C(F)(F)F)n[nH]3)cn3ccnc23)c1F [Compound I-10, 8-(2,3-Difluorobenzyl)-6-(3-(trifluoromethyl)-1H-1,2,4-triazol-5-yl)imidazo[1,2-a]pyrazine] | 3.1 | 108 | –
Fc1ccccc1Cc1nc(-c2nc(C(F)(F)F)n[nH]2)cn2ccnc12 [Compound I-1, 8-(2-fluorobenzyl)-6-(3-(trifluoromethyl)-1H-1,2,4-triazol-5-yl)imidazo[1,2-a]pyrazine] | 0.9 | 210 | % of activity vs. vehicle [2]: 7%; Kp uu at 1 h ([1]; CSF / unbound plasma, 1 mg/kg PO, @ 1 h, read-out: Kp,uu): 1; Kp uu at 2 h ([1]; CSF / unbound plasma, 1 mg/kg PO, @ 2 h): 1.4; Kp uu at 4 h ([1]; CSF / unbound plasma, 1 mg/kg PO, @ 4 h): 1.9; concentration at 1 h ([1]; CSF, 1 mg/kg PO, @ 1 h, read-out: CSF Conc.): 21 nM; concentration at 2 h ([1]; CSF, 1 mg/kg PO, @ 2 h, read-out: CSF Conc.): 35 nM; concentration at 4 h ([1]; CSF, 1 mg/kg PO, @ 4 h, read-out: CSF Conc.): 39 nM; brain activation (fMRI-BOLD) [3]: a greater region of the brain is activated
Fc1cccc(Cc2nc(-c3nc(C(F)(F)F)n[nH]3)cn3ccnc23)c1 [Compound I-2, 8-(3-Fluorobenzyl)-6-(3-(trifluoromethyl)-1H-1,2,4-triazol-5-yl)imidazo[1,2-a]pyrazine] | 0.9 | 59 | –
Fc1cccc(Cc2nc(-c3nc(C(F)F)n[nH]3)cn3ccnc23)c1 [Compound I-3, 6-(3-(Difluoromethyl)-1H-1,2,4-triazol-5-yl)-8-(3-fluorobenzyl)imidazo[1,2-a]pyrazine] | 0.8 | 6 | –
Fc1cccc(Cc2nc(-c3nc(C(F)F)n[nH]3)cn3ccnc23)c1F [Compound I-11, 8-(2,3-Difluorobenzyl)-6-(3-(difluoromethyl)-1H-1,2,4-triazol-5-yl)imidazo[1,2-a]pyrazine] | 2.1 | 72 | –

More lines, main results first:

Kp uu at 1 h [1, 4] | concentration at 1 h [1, 5] [nM] | SMILES | further results
1.7 | 284 | Fc1ccccc1Cc1nc(-c2nc(C(F)F)n[nH]2)cn2ccnc12 [Compound I-14, 8-(2-Fluorobenzyl)-6-(3-(difluoromethyl)-1H-1,2,4-triazol-5-yl)imidazo[1,2-a]pyrazine] | –
1.6 | 272 | Fc1ccccc1Cc1nc(-c2nc(C(F)(F)F)n[nH]2)cn2ncnc12 [Compound I-16, 8-(2-Fluorobenzyl)-6-(3-(trifluoromethyl)-1H-1,2,4-triazol-5-yl)-[1,2,4]triazolo[1,5-a]pyrazine] | –
